PubChem BioAssay AID248 (DTP/NCI, 2004)
Several values for one entry are separate records, joined by “and”; a condition that tells them apart may be missing. Identical values can stand only once. Inconclusive results and toxic doses are left out. Cut-off read from the data, not from the text of the source: active = T/C of 150% or more; inactive = T/C below 125%.

Tested on: L1210 leukemia ip in BDF1 mice, survival T/C
Experiment: NCI In Vivo Anticancer Drug Screen. Data for tumor model L1210 Leukemia (intraperitoneal) in B6D2F1 (BDF1) mice
Conditions: endpoint: mean survival time, higher = longer survival
Procedure, shortened: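 Read-out is survival time, reported as the treated-group measurement over the vehicle-control measurement.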

[1] = dose: 6.25 mg/kg/injection, schedule: Q01DX009 (ip), vehicle: saline
[2] = dose: 12.5 mg/kg/injection, schedule: Q01DX009 (ip), vehicle: saline
[3] = dose: 25.0 mg/kg/injection, schedule: Q01DX009 (ip), vehicle: saline
[4] = dose: 50.0 mg/kg/injection, schedule: Q01DX001 (ip), vehicle: saline
[5] = dose: 100.0 mg/kg/injection, schedule: Q04DX003 (ip), vehicle: saline with Tween-80
[6] = dose: 400.0 mg/kg/injection, schedule: Q04DX003 (ip), vehicle: saline with Tween-80
[7] = dose: 100.0 mg/kg/injection, schedule: Q04DX002 (ip), vehicle: saline with Tween-80
[8] = dose: 200.0 mg/kg/injection, schedule: Q04DX002 (ip), vehicle: saline with Tween-80
[9] = dose: 400.0 mg/kg/injection, schedule: Q04DX002 (ip), vehicle: saline with Tween-80
[10] = dose: 200.0 mg/kg/injection, schedule: Q04DX003 (ip), vehicle: saline with Tween-80
[11] = dose: 100.0 mg/kg/injection, schedule: Q01DX001 (ip), vehicle: saline
[12] = dose: 200.0 mg/kg/injection, schedule: Q01DX001 (ip), vehicle: saline
[13] = dose: 400.0 mg/kg/injection, schedule: Q01DX001 (ip), vehicle: saline
[14] = dose: 50.0 mg/kg/injection, schedule: Q01DX009 (ip), vehicle: Klucel (hydroxypropylcellulose) (HPC)
[15] = dose: 100.0 mg/kg/injection, schedule: Q01DX Z (ip), vehicle: saline
[16] = dose: 100.0 mg/kg/injection, schedule: Q01DX009 (ip), vehicle: Klucel (hydroxypropylcellulose) (HPC)
[17] = dose: 100.0 mg/kg/injection, schedule: Q04DX003 (ip), vehicle: Klucel (hydroxypropylcellulose) (HPC)
[18] = dose: 200.0 mg/kg/injection, schedule: Q01DX009 (ip), vehicle: Klucel (hydroxypropylcellulose) (HPC)
[19] = dose: 200.0 mg/kg/injection, schedule: Q04DX003 (ip), vehicle: Klucel (hydroxypropylcellulose) (HPC)
[20] = dose: 400.0 mg/kg/injection, schedule: Q01DX009 (ip), vehicle: Klucel (hydroxypropylcellulose) (HPC)
[21] = dose: 400.0 mg/kg/injection, schedule: Q04DX003 (ip), vehicle: Klucel (hydroxypropylcellulose) (HPC)

Measured: T/C

CCN1CC(CCN2CCOCC2)C(c2ccccc2)(c2ccccc2)C1=O (stereo unspecified)
inactive: [1] 111 % of control | [2] 108 % of control | [3] 101 % of control | dose: 25.0 mg/kg/injection, schedule: Q04DX003 (ip), vehicle: saline 87 % of control | dose: 50.0 mg/kg/injection, schedule: Q01DX009 (ip), vehicle: saline 111 % of control | dose: 50.0 mg/kg/injection, schedule: Q04DX003 (ip), vehicle: saline 95 % of control | dose: 100.0 mg/kg/injection, schedule: Q01DX009 (ip), vehicle: saline 101 % of control | dose: 100.0 mg/kg/injection, schedule: Q04DX003 (ip), vehicle: saline 92 % of control

O=C(O)CCS
inactive: [4] 98 % of control

O=C(CC(=O)Nc1ccc([N+](=O)[O-])cc1)Nc1ccc([N+](=O)[O-])cc1
inactive: [5] 87 % of control | [6] 92 % of control

Cc1ccc([I+]c2ccc(C)c(C)c2C)c(C)c1C
inactive: dose: 2.5 mg/kg/injection, schedule: Q01DX001 (ip), vehicle: acetone 100 % of control | dose: 5.0 mg/kg/injection, schedule: Q01DX001 (ip), vehicle: acetone 102 % of control | dose: 10.0 mg/kg/injection, schedule: Q01DX001 (ip), vehicle: acetone 96 % of control | dose: 22.0 mg/kg/injection, schedule: Q01DX001 (ip), vehicle: acetone 103 % of control

CC1=C(O)C(=O)C(C2=C(O)C(=O)C(C)=C(O)C2=O)=C(O)C1=O
inactive: dose: 0.1 mg/kg/injection, schedule: Q01DX Z (ip), vehicle: carboxymethylcellulose (CMC) 111 % of control | dose: 0.2 mg/kg/injection, schedule: Q01DX Z (ip), vehicle: carboxymethylcellulose (CMC) 105 % of control | dose: 0.5 mg/kg/injection, schedule: Q01DX Z (ip), vehicle: carboxymethylcellulose (CMC) 94 % of control | dose: 1.0 mg/kg/injection, schedule: Q01DX Z (ip), vehicle: carboxymethylcellulose (CMC) 94 % of control | dose: 5.0 mg/kg/injection, schedule: Q01DX001 (ip), vehicle: carboxymethylcellulose (CMC) 103 % of control | dose: 10.0 mg/kg/injection, schedule: Q01DX001 (ip), vehicle: carboxymethylcellulose (CMC) 102 % of control | dose: 12.0 micrograms/kg/injection, schedule: Q01DX Z (ip), vehicle: carboxymethylcellulose (CMC) 101 % of control | dose: 25.0 micrograms/kg/injection, schedule: Q01DX Z (ip), vehicle: carboxymethylcellulose (CMC) 101 % of control | dose: 50.0 micrograms/kg/injection, schedule: Q01DX Z (ip), vehicle: carboxymethylcellulose (CMC) 101 % of control

COc1ccc(NC(=O)c2cccc(C(=O)Nc3ccc(OC)cc3Cl)c2)c(Cl)c1
inactive: dose: 100.0 mg/kg/injection, schedule: Q04DX002 (ip), vehicle: Klucel (hydroxypropylcellulose) (HPC) 97 % of control | dose: 200.0 mg/kg/injection, schedule: Q04DX002 (ip), vehicle: Klucel (hydroxypropylcellulose) (HPC) 97 % of control | dose: 400.0 mg/kg/injection, schedule: Q04DX002 (ip), vehicle: Klucel (hydroxypropylcellulose) (HPC) 90 % of control

CCCCCCCCCCCc1cccc2ccccc12
inactive: dose: 50.0 mg/kg/injection, schedule: Q04DX002 (ip), vehicle: saline with Tween-80 92 % of control | [7] 89 % of control | [8] 92 % of control | [9] 95 % of control

CC(C)(C)OC1C=CCCC1 (stereo unspecified)
inactive: [5] 96 % of control | [10] 96 % of control | [6] 96 % of control

N#CCc1ccc(N=Nc2c(N)nc(N)[nH]c2=O)cc1
inactive: [11] 98 % of control | [12] 96 % of control | [13] 96 % of control

O=C(OCCc1ccccc1)c1ccccc1
inactive: [7] 100 % of control | [8] 100 % of control | [9] 103 % of control

CSc1ccc(C2NC(=O)NC2=O)cc1 (stereo unspecified)
inactive: [4] 102 % of control | [11] 100 % of control | [12] 96 % of control | [13] 102 % of control

CC(=O)c1c(O)c(Br)c(C)oc1=O
inactive: dose: 6.25 mg/kg/injection, schedule: Q01DX009 (ip), vehicle: Klucel (hydroxypropylcellulose) (HPC) 100 % of control | dose: 12.5 mg/kg/injection, schedule: Q01DX009 (ip), vehicle: Klucel (hydroxypropylcellulose) (HPC) 96 % of control | dose: 25.0 mg/kg/injection, schedule: Q01DX009 (ip), vehicle: Klucel (hydroxypropylcellulose) (HPC) 93 % of control | [14] 89 % of control

COc1cc(C)c(C(=O)Oc2cc(C)c(C(=O)O)c(O)c2C)c(OC)c1C
inactive: [1] 95 % of control | [2] 98 % of control | [3] 97 % of control and 98 % of control | dose: 37.5 mg/kg/injection, schedule: Q01DX Z (ip), vehicle: saline 93 % of control | dose: 75.0 mg/kg/injection, schedule: Q01DX Z (ip), vehicle: saline 98 % of control | [15] 96 % of control | dose: 150.0 mg/kg/injection, schedule: Q01DX Z (ip), vehicle: saline 93 % of control | dose: 300.0 mg/kg/injection, schedule: Q01DX Z (ip), vehicle: saline 98 % of control

O=C(NC(c1ccccc1)C(O)c1ccccc1)c1ccc([N+](=O)[O-])cc1 (stereo unspecified)
inactive: dose: 50.0 mg/kg/injection, schedule: Q01DX001 (ip), vehicle: carboxymethylcellulose (CMC) 96 % of control | dose: 100.0 mg/kg/injection, schedule: Q01DX001 (ip), vehicle: carboxymethylcellulose (CMC) 93 % of control | dose: 100.0 mg/kg/injection, schedule: Q04DX003 (ip), vehicle: acetone 109 % of control | dose: 200.0 mg/kg/injection, schedule: Q01DX001 (ip), vehicle: carboxymethylcellulose (CMC) 93 % of control | dose: 200.0 mg/kg/injection, schedule: Q04DX003 (ip), vehicle: acetone 96 % of control | dose: 400.0 mg/kg/injection, schedule: Q01DX001 (ip), vehicle: carboxymethylcellulose (CMC) 87 % of control | dose: 400.0 mg/kg/injection, schedule: Q04DX003 (ip), vehicle: acetone 103 % of control

O=S(=O)(/N=C1C=C/C(=N\S(=O)(=O)c2ccccc2)c2ccccc2\1)c1ccccc1
inactive: [5] 88 % of control | [10] 90 % of control | [6] 93 % of control

Cc1ccc(NC2CNC(=O)NC2=O)cc1C (stereo unspecified)
inactive: [15] 91 % of control | dose: 200.0 mg/kg/injection, schedule: Q01DX Z (ip), vehicle: saline 87 % of control

C=C(C)c1cc2c(cc1O)OCC2C (stereo unspecified)
inactive: [14] 101 % of control | [16] 92 % of control and 96 % of control | [17] 107 % of control | [18] 86 % of control and 89 % of control | [19] 94 % of control | [20] 96 % of control | [21] 94 % of control

CC(C)OC(CCCl)c1ccccc1 (stereo unspecified)
inactive: [16] 91 % of control | [17] 96 % of control | [18] 96 % of control | [19] 102 % of control | [20] 95 % of control | [21] 96 % of control
